# Assay results: the SangsterLogP compilation
# Test: method code SF-AS, from DOI: 10.1016/s0045-6535(98)00132-5, PMID: 9753760
row,SMILES,logP
1,Cc1ccc(Cl)cc1NC(=O)c1cc([N+](=O)[O-])ccc1O,2.61
2,CCOc1ccccc1NC(=O)c1cc([N+](=O)[O-])ccc1O,2.34
3,Cc1ccccc1NC(=O)c1cccc([N+](=O)[O-])c1O,1.9
4,COc1ccc(NC(=O)c2cc([N+](=O)[O-])ccc2O)cc1,2.19
5,COc1ccc(NC(=O)c2cccc([N+](=O)[O-])c2O)cc1,1.83
6,CCOc1ccccc1NC(=O)c1cccc([N+](=O)[O-])c1O,2.04
7,Cc1c(Cl)cccc1NC(=O)c1cc([N+](=O)[O-])ccc1O,2.64
8,Cc1ccc(NC(=O)c2cccc([N+](=O)[O-])c2O)cc1,1.94
9,Cc1c(Cl)cccc1NC(=O)c1cccc([N+](=O)[O-])c1O,2.32
10,Cc1ccc(NC(=O)c2cc([N+](=O)[O-])ccc2O)cc1,2.22
11,Cc1ccc(Cl)cc1NC(=O)c1cccc([N+](=O)[O-])c1O,2.24
12,O=C(Nc1ccc(Cl)cc1)c1cc([N+](=O)[O-])ccc1O,2.54
13,O=C(Nc1ccc(Cl)cc1)c1cccc([N+](=O)[O-])c1O,2.16
14,CCOc1ccc(NC(=O)c2cccc([N+](=O)[O-])c2O)cc1,1.98
